Results reported in ChEMBL document CHEMBL2406914 (ACS Med Chem Lett, 2013).

How the values were obtained:
[1] = target: T1, Prostaglandin G/H synthase 1 (Ovis aries, UniProt P05979); assay: Inhibition of ovine COX1-mediated arachidonic acid oxidation using [14C]AA as substrate after 5 mins by GC/NICI/MS analysis
T1 sequence (P05979 whole entry): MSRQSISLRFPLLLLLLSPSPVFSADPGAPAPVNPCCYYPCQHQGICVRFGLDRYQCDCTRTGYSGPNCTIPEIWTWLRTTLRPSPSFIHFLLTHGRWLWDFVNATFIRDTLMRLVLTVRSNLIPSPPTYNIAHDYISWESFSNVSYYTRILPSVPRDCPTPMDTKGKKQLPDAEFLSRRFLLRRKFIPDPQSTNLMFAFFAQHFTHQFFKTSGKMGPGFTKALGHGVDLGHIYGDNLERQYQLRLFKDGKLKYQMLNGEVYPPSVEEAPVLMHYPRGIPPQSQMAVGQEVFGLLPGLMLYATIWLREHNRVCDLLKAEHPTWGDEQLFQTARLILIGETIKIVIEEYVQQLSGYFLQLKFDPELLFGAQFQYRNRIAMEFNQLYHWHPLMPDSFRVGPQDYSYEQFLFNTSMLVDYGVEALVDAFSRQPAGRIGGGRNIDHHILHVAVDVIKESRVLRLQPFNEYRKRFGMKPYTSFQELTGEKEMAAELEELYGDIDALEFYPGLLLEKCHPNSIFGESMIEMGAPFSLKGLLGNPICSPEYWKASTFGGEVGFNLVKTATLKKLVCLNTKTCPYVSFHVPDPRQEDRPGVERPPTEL

[2] = test system: HepG2; assay: Cytotoxicity against human HepG2 cells assessed as intracellular ATP level after 24 hrs by luciferase reporter gene assay; assay type: cell-based; conditions: HepG2, 24 h
[3] = Metabolic stability in rat liver microsomes assessed as compound remaining at 10 uM after 30 mins by LC-MS analysis; conditions: human
[4] = target: T2, Myoglobin (Homo sapiens, UniProt P02144); assay: Inhibition of myoglobin (unknown origin)-mediated arachidonic acid oxidation using [14C]AA as substrate after 3 hrs by GC/NICI/MS analysis
T2 sequence (P02144 whole entry): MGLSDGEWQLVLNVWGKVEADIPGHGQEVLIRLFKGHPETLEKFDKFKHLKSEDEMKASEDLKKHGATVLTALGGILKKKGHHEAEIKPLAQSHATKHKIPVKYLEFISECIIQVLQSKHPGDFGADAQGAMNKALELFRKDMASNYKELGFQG

Compound	IC50 [1] [µM]	EC50 [2] [mM]	remaining at 0.5 h, 10 µM [3] [%]	IC50 [4] [nM]
Cc1nc2c(c(C)c1O)CNC(=O)N2	> 1000	2.96	87	–
CC(=O)Nc1ccc(O)cc1 [ACETAMINOPHEN]	372	0.594	–	2300
O=C1NCc2cc(O)cnc2N1	451	4.76	108	–
Cc1nc2c(c(C)c1O)COC(=O)N2	198	> 5	97	–
